Columns and labels:
[1] = Leaching test: 100 g fabric soaked in 10 liters stagnant distilled water, 3 days (72 hours); format: physicochemical; details: for Leaching of active ingredients / Leaching Test-Leaching of active ingredients: pad process; for Leaching of active ingredients: cured 180° C. 2 min; for Leaching Test-Leaching of active ingredients: 2 min
Outline: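 Test and control fabrics were soaked together in a closed jar. Leached substances in the water were then determined by standard analytical methods.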

[2] = Leaching: 10 grams fabric in 100 milliliters distilled water, 7 days, GC-MS; format: physicochemical
Protocol: To test for a potential leaching of the antimicrobial agents fixed to the textile material, the following test was performed. A test fabric of polyester 65%/cotton 35% with 210 g/m2 was treated with polyhexamethylenebiguanide (PHMB) 0.5%, silver chloride 0.075%, octadecylaminomethyl trihydroxysilylpropyl ammonium chloride (organosilane) 0.4%, and propiconazole 0.5%
The treated textile material was put into distilled water at a ratio of 1:10. Specifically, a fabric of 10 grams was soaked in 100 milliliters of distilled water. The fabric was incubated in the water for 7 days at room temperature, i.e. between 21 and 25° C.
Following said incubation time, the fabric was removed from the water and the exposed water was tested for the presence of the above five active ingredients using gas chromatography-mass spectrometry (GC-MS).

CCCC1COC(Cn2cncn2)(c2ccc(Cl)cc2Cl)O1 (stereo not drawn) [Propiconazole, propiconazole]
Leaching of active ingredients (in ppm) ([1]; exhaust 80° C., 60 min, dosage 1% o.w.f (test up to 5% o.w.f)): 3 ppm
Leaching of active ingredients (in ppm) ([1]; exhaust 80° C., 60 min, dosage 2% o.w.f): 26 ppm
Leaching of active ingredients (in ppm) ([1]; exhaust 80° C., 60 min, dosage 3% o.w.f): 40 ppm
Leaching of active ingredients (in ppm) ([1]; exhaust 80° C., 60 min, dosage 4% o.w.f): 47 ppm
Leaching of active ingredients (in ppm) ([1]; exhaust 80° C., 60 min, dosage 5% o.w.f): 73 ppm
Leaching of active ingredients (in ppm) ([1]; exhaust 80 ° C., solution dosage 1% o.w.f, process time 10 min): 38 ppm
Leaching of active ingredients (in ppm) ([1]; exhaust 80 ° C., solution dosage 1% o.w.f, process time 20 min): 26 ppm
Leaching of active ingredients (in ppm) ([1]; exhaust 80 ° C., solution dosage 1% o.w.f, process time 30 min): 22 ppm
Leaching of active ingredients (in ppm) ([1]; exhaust 80 ° C., solution dosage 1% o.w.f, process time 40 min): 15 ppm
Leaching of active ingredients (in ppm) ([1]; exhaust 80 ° C., solution dosage 1% o.w.f, process time 50 min): 14 ppm
Leaching of active ingredients (in ppm) ([1]; exhaust 80 ° C., solution dosage 1% o.w.f, process time 55 min): 7 ppm
Leaching of active ingredients (in ppm) ([1]; exhaust 80 ° C., solution dosage 1% o.w.f, process time 60 min): 3 ppm
Leaching of active ingredients (in ppm) ([1]; exhaust 80 ° C., solution dosage 1% o.w.f, process time 70 min): 3 ppm
Leaching of active ingredients (in ppm) ([1]; exhaust 80 ° C., solution dosage 1% o.w.f, process time 80 min): 4 ppm
Leaching of active ingredients (in ppm) ([1]; exhaust 80 ° C., solution dosage 1% o.w.f, process time 90 min): 7 ppm
limit on the quantity of the agent that can be adhered to the textile in a non-leaching or substantially non-leaching manner ([1]; from Experimental examples I.1 and I.4): about 0.25 % o.w.f.
Leaching of active ingredients ([1]; mixture 1 gm/lit each): 9 ppm
Leaching of active ingredients ([1]; mixture 1 gm/lit each, after Washing): 0.4 ppm
Leaching of active ingredients ([1]; mixture 5 gm/lit each): 13 ppm
Leaching of active ingredients ([1]; mixture 5 gm/lit each, after Washing): 0.7 ppm
Leaching of active ingredients ([1]; mixture 10 gm/lit each): 24 ppm
Leaching of active ingredients ([1]; mixture 10 gm/lit each, after Washing): 0.9 ppm
Leaching Test-Leaching of active ingredients ([1]; single agent 5 gm/lit, curing 120° C.): 9 ppm
Leaching Test-Leaching of active ingredients ([1]; single agent 5 gm/lit, curing 140° C.): 7 ppm
Leaching Test-Leaching of active ingredients ([1]; single agent 5 gm/lit, curing 150° C.): 5 ppm
Leaching Test-Leaching of active ingredients ([1]; single agent 5 gm/lit, curing 160° C.): 4 ppm
Leaching Test-Leaching of active ingredients ([1]; single agent 5 gm/lit, curing 180° C.): 1 ppm
Leaching Test-Leaching of active ingredients ([1]; single agent 10 gm/lit, curing 120° C.): 15 ppm
Leaching Test-Leaching of active ingredients ([1]; single agent 10 gm/lit, curing 140° C.): 14 ppm
Leaching Test-Leaching of active ingredients ([1]; single agent 10 gm/lit, curing 150° C.): 13 ppm
Leaching Test-Leaching of active ingredients ([1]; single agent 10 gm/lit, curing 160° C.): 8 ppm
Leaching Test-Leaching of active ingredients ([1]; single agent 10 gm/lit, curing 180° C.): 2 ppm
Leaching of active ingredient (in ppm) ([1]; solution dosage 0.10% o.w.f, exhaust temperature 40° C., process time 60 min): 0 ppm
Leaching of active ingredient (in ppm) ([1]; solution dosage 0.10% o.w.f, exhaust temperature 60° C., process time 60 min): 0 ppm
Leaching of active ingredient (in ppm) ([1]; solution dosage 0.10% o.w.f, exhaust temperature 65° C., process time 60 min): 0 ppm
Leaching of active ingredient (in ppm) ([1]; solution dosage 0.10% o.w.f, exhaust temperature 70° C., process time 60 min): 0 ppm
Leaching of active ingredient (in ppm) ([1]; solution dosage 0.10% o.w.f, exhaust temperature 75° C., process time 60 min): 0 ppm
Leaching of active ingredient (in ppm) ([1]; solution dosage 0.10% o.w.f, exhaust temperature 80° C., process time 60 min): 0 ppm
Leaching of active ingredient (in ppm) ([1]; solution dosage 0.10% o.w.f, exhaust temperature 85° C., process time 60 min): 1 ppm
Leaching of active ingredient (in ppm) ([1]; solution dosage 0.10% o.w.f, exhaust temperature 90° C., process time 60 min): 2 ppm
Leaching of active ingredient (in ppm) ([1]; solution dosage 0.10% o.w.f, exhaust temperature 95° C., process time 60 min): 3 ppm
Leaching of active ingredient (in ppm) ([1]; solution dosage 0.20% o.w.f, exhaust temperature 40° C., process time 60 min): 0 ppm
Leaching of active ingredient (in ppm) ([1]; solution dosage 0.20% o.w.f, exhaust temperature 60° C., process time 60 min): 0 ppm
Leaching of active ingredient (in ppm) ([1]; solution dosage 0.20% o.w.f, exhaust temperature 65° C., process time 60 min): 0 ppm
Leaching of active ingredient (in ppm) ([1]; solution dosage 0.20% o.w.f, exhaust temperature 70° C., process time 60 min): 0 ppm
Leaching of active ingredient (in ppm) ([1]; solution dosage 0.20% o.w.f, exhaust temperature 75° C., process time 60 min): 0 ppm
Leaching of active ingredient (in ppm) ([1]; solution dosage 0.20% o.w.f, exhaust temperature 80° C., process time 60 min): 0 ppm
Leaching of active ingredient (in ppm) ([1]; solution dosage 0.20% o.w.f, exhaust temperature 85° C., process time 60 min): 2 ppm
Leaching of active ingredient (in ppm) ([1]; solution dosage 0.20% o.w.f, exhaust temperature 90° C., process time 60 min): 4 ppm
Leaching of active ingredient (in ppm) ([1]; solution dosage 0.20% o.w.f, exhaust temperature 95° C., process time 60 min): 4 ppm
Leaching of active ingredient (in ppm) ([1]; solution dosage 0.50% o.w.f, exhaust temperature 40° C., process time 60 min): 0 ppm
Leaching of active ingredient (in ppm) ([1]; solution dosage 0.50% o.w.f, exhaust temperature 60° C., process time 60 min): 1 ppm
Leaching of active ingredient (in ppm) ([1]; solution dosage 0.50% o.w.f, exhaust temperature 65° C., process time 60 min): 1 ppm
Leaching of active ingredient (in ppm) ([1]; solution dosage 0.50% o.w.f, exhaust temperature 70° C., process time 60 min): 1 ppm
Leaching of active ingredient (in ppm) ([1]; solution dosage 0.50% o.w.f, exhaust temperature 75° C., process time 60 min): 1 ppm
Leaching of active ingredient (in ppm) ([1]; solution dosage 0.50% o.w.f, exhaust temperature 80° C., process time 60 min): 1 ppm
Leaching of active ingredient (in ppm) ([1]; solution dosage 0.50% o.w.f, exhaust temperature 85° C., process time 60 min): 3 ppm
Leaching of active ingredient (in ppm) ([1]; solution dosage 0.50% o.w.f, exhaust temperature 90° C., process time 60 min): 5 ppm
Leaching of active ingredient (in ppm) ([1]; solution dosage 0.50% o.w.f, exhaust temperature 95° C., process time 60 min): 6 ppm
Leaching of active ingredient (in ppm) ([1]; solution dosage 0.80% o.w.f, exhaust temperature 40° C., process time 60 min): 0 ppm
Leaching of active ingredient (in ppm) ([1]; solution dosage 0.80% o.w.f, exhaust temperature 60° C., process time 60 min): 2 ppm
Leaching of active ingredient (in ppm) ([1]; solution dosage 0.80% o.w.f, exhaust temperature 65° C., process time 60 min): 1 ppm
Leaching of active ingredient (in ppm) ([1]; solution dosage 0.80% o.w.f, exhaust temperature 70° C., process time 60 min): 2 ppm
Leaching of active ingredient (in ppm) ([1]; solution dosage 0.80% o.w.f, exhaust temperature 75° C., process time 60 min): 2 ppm
Leaching of active ingredient (in ppm) ([1]; solution dosage 0.80% o.w.f, exhaust temperature 80° C., process time 60 min): 1 ppm
Leaching of active ingredient (in ppm) ([1]; solution dosage 0.80% o.w.f, exhaust temperature 85° C., process time 60 min): 4 ppm
Leaching of active ingredient (in ppm) ([1]; solution dosage 0.80% o.w.f, exhaust temperature 90° C., process time 60 min): 6 ppm
Leaching of active ingredient (in ppm) ([1]; solution dosage 0.80% o.w.f, exhaust temperature 95° C., process time 60 min): 7 ppm
Leaching of active ingredient (in ppm) ([1]; solution dosage 1.00% o.w.f, exhaust temperature 40° C., process time 60 min): 0 ppm
Leaching of active ingredient (in ppm) ([1]; solution dosage 1.00% o.w.f, exhaust temperature 60° C., process time 60 min): 8 ppm
Leaching of active ingredient (in ppm) ([1]; solution dosage 1.00% o.w.f, exhaust temperature 65° C., process time 60 min): 7 ppm
Leaching of active ingredient (in ppm) ([1]; solution dosage 1.00% o.w.f, exhaust temperature 70° C., process time 60 min): 4 ppm
Leaching of active ingredient (in ppm) ([1]; solution dosage 1.00% o.w.f, exhaust temperature 75° C., process time 60 min): 3 ppm
Leaching of active ingredient (in ppm) ([1]; solution dosage 1.00% o.w.f, exhaust temperature 80° C., process time 60 min): 1.5 ppm
Leaching of active ingredient (in ppm) ([1]; solution dosage 1.00% o.w.f, exhaust temperature 85° C., process time 60 min): 8 ppm
Leaching of active ingredient (in ppm) ([1]; solution dosage 1.00% o.w.f, exhaust temperature 90° C., process time 60 min): 9 ppm
Leaching of active ingredient (in ppm) ([1]; solution dosage 1.00% o.w.f, exhaust temperature 95° C., process time 60 min): 9 ppm
Extracted water Conc, ppm [2]: BDL (BDL-below detection limit Detection limit: 1 parts per million (ppm))
